Molecular target: T1, OX2 receptor (Homo sapiens, UniProt O43614)
T1 construct: expressed in transfected cells; host or cells: CHO cells (membranes)
T1 sequence (O43614 1-444): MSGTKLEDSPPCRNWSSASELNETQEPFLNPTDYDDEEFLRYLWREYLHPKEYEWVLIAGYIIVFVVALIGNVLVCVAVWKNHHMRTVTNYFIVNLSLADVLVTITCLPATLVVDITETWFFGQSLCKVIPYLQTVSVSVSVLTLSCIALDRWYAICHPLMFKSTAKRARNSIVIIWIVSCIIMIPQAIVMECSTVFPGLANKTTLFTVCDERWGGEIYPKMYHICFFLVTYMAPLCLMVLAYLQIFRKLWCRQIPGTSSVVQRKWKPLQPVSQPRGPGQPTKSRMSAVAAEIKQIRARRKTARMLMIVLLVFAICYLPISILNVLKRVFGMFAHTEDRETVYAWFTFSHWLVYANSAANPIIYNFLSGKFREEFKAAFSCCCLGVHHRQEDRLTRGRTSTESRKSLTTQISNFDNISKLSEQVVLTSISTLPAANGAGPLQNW
Test: radioligand binding assay, OX2 receptor
Details: membranes prepared from CHO cells expressing the OX2 receptor; read-out: OX2R Ki
Procedure: The utility of the compounds in accordance with the present invention as orexin receptor OX1R and/or OX2R antagonists may be readily determined without undue experimentation by methodology well known in the art, including the “FLIPR Ca^2+ Flux Assay” (Okumura et al., Biochem. Biophys. Res. Comm. 280:976-981, 2001). In a typical experiment the OX1 and OX2 receptor antagonistic activity of the compounds of the present invention was determined in accordance with the following experimental method. For intracellular calcium measurements, Chinese hamster ovary (CHO) cells expressing the rat orexin-1 receptor or the human orexin-2 receptor, are grown in Iscove's modified DMEM containing 2 mM L-glutamine, […], 1% hypoxanthine-thymidine supplement, 100 U/ml penicillin, 100 ug/ml streptomycin and 10% heat-inactivated fetal calf serum (FCS). The cells are seeded at 20,000 cells/well into Becton-Dickinson black 384-well clear bottom sterile plates coated with poly-D-lysine. All reagents were from GIBCO-Invitrogen Corp. The seeded plates are incubated overnight at 37° C. and 5% CO2. Ala-6,12 human orexin-A as the agonist is prepared as a 1 mM stock solution in 1% bovine serum albumin (BSA) and diluted in assay buffer (HBSS containing 20 mM HEPES, 0.1% BSA and 2.5 mM probenecid, pH 7.4) for use in the assay at a final concentration of 70 pM. Test compounds are prepared as 10 mM stock solution in DMSO, then diluted in 384-well plates, first in DMSO, then assay buffer. On the day of the assay, cells are washed 3 times with 100 ul assay buffer and then incubated for 60 min (37° C., 5% CO2) in 60 ul assay buffer containing 1 uM Fluo-4AM ester, 0.02% pluronic acid, and 1% BSA. The dye loading solution is then aspirated and cells are washed 3 times with 100 ul assay buffer. 30 ul of that same buffer is left in each well. Within the Fluorescent Imaging Plate Reader (FLIPR, Molecular Devices), test compounds are added to the plate in a volume of 25 ul, incubated for 5 min and finally 25 ul of agonist is added. Fluorescence is measured for each well at 1 second intervals for 5 minutes and the height of each fluorescence peak is compared to the height of the fluorescence peak induced by 70 pM Ala-6,12 orexin-A with buffer in place of antagonist. For each antagonist, IC50 value (the concentration of compound needed to inhibit 50% of the agonist response) is determined. Alternatively, compound potency can be assessed by a radioligand binding assay (described in Bergman et. al. Bioorg. Med. Chem. Lett. 2008, 18, 1425-1430) in which the inhibition constant (Ki) is determined in membranes prepared from CHO cells expressing either the OX1 or OX2 receptor. The intrinsic orexin receptor antagonist activity of a compound which may be used in the present invention may be determined by these assays.

Ki | Compound
1.3 nM | COc1ccc(CNC(=O)c2cc(-c3cc(C)cnc3F)cnc2-c2ccccn2)cc1Cl [11-5, N-(3-chloro-4-methoxybenzyl)-2″-fluoro-5″- methyl-2,2′: 5′,3 ″-terpyridine-3′-carboxamide]
0.54 nM | COc1ccc(CNC(=O)c2cc(-c3cncc(Cl)c3)cnc2-c2ccccn2)nc1OC [12-5, 5″-chloro-N-[(5,6-dimethoxypyridin-2-yl)methyl]-2,2′:5′,3″-terpyridine-3′-carboxamide]
0.46 nM | COc1ccc(CNC(=O)c2cc(-c3cncc(C)c3)cnc2-c2ccccn2)nc1OC [12-6, N-[(5,6-dimethoxypyridin-2-yl)methyl]-5″-methyl-2,2′:5′,3″-terpyridine-3′-carboxamide]
12 nM | COc1ccc(CNC(=O)c2cc(-c3cncc(C#N)c3)cnc2-c2ccccn2)nc1OC [12-14, 5″-cyano-N-[(5,6-dimethoxypyridin-2-yl)methyl]-2,2′:5′,3″- terpyridine-3′-carboxamide]

Compound | Ki
N-(4-ethyl-3- methoxybenzyl)-5″- methyl-2,2′:5′,3″- terpyridine-3′- carboxamide [12-17] | 1.2 nM
